≈ marks a conversion by molar mass, not a printed value.
How the values were obtained:
[1] = system: Escherichia coli ATCC25922; assay: Minimum Inhibitory Concentration Test (Nutrition Broth Method), Table 3; format: cell-based
Method: (§1) Anti-bacterial tests and c log P theoretical calculation are performed on the products of the embodiment 2 and the embodiment 3, as shown in Table 3. [table]

[2] = system: Escherichia coli ATCC25922; assay: Minimum inhibitory concentration MIC (agar method), Table 3; format: cell-based
Method: as §1

[3] = system: Escherichia coli ATCC 25922; assay: Anti-bacterial experiment, GB/T 20944.3-2008 shake flask method; format: cell-based
Method: Adding 10 g of 3-hydroxybutyrate ethyl ester and 0.01 g of zinc acetate (i.e. a mass ratio of 3-hydroxybutyrate ethyl ester is 0.1%) in a three-necked flask with mechanical stirring, a thermometer and a distillation device, wherein a stirring speed is approximately 150 revolutions; under an environment with a trace of nitrogen, increasing a temperature to 150° C. with a speed of 0.5-3° C./min to react for 1 hour, then stopping reaction to obtain a 3-HB oligomer; detecting a degree of polymerization by a mass spectrometry, wherein an anti-bacterial experiment refers to GB/T 20944.3-2008 Textiles-Evaluation for anti-bacterial activity-Part 3: Shake flask method, a strain used is Escherichia coli ATCC 25922.

S. aureus = details: disclosed in CN110452115A; cited from earlier work
K. pneumoniae = details: disclosed in CN110452115A; cited from earlier work
C. albicans = details: disclosed in CN110452115A; cited from earlier work

Compound | MIC [1] [µg/mL] | Minimum inhibitory concentration MIC (agar method) [2] [%] | other results
COC(=O)C[C@@H](C)O [Embodiment 2-1, R-(−)-3-hydroxybutyric methyl ester] | 62.5 (≈ 529 µM) | 10 | 
CCCCCOC(=O)C[C@@H](C)O [Embodiment 2-5, R-(−)-3-hydroxybutyrate pentyl ester] | 3.91 (≈ 22.4 µM) | 0.5 | 
R-(−)-3-hydroxybutyrate ethyl ester oligomer [Embodiment 1-3] |  |  | Anti-bacterial rate (%) [3]: 99%
CCCCCCOC(=O)[C@@H](C)O [Embodiment 3-1, R-(−)-lactate hexyl ester] | 1.95 (≈ 11.2 µM) | 0.25 | 
poly-3-hydroxybutyrate oligomer |  |  | minimum inhibitory concentration (MIC) (S. aureus): 6250 µg/mL; minimum inhibitory concentration (MIC) (K. pneumoniae): 12500 µg/mL; minimum inhibitory concentration (MIC) (C. albicans): 25000 µg/mL
CCOC(=O)C[C@@H](C)O [Embodiment 2-2, R-(−)-3-hydroxybutyrate ethyl ester] | 31.2 (≈ 236 µM) | 5 | 
CCCOC(=O)C[C@@H](C)O [Embodiment 2-3, R-(−)-3-hydroxybutyrate propyl ester] | 15.6 (≈ 107 µM) | 2 | 
CCCCCCOC(=O)C[C@@H](C)O [Embodiment 2-6, R-(−)-3-hydroxybutyrate hexyl ester] | 1.95 (≈ 10.4 µM) | 0.25 | 
CCCCOC(=O)C[C@@H](C)O [Embodiment 2-4, R-(−)-3-hydroxybutyrate butyl ester] | 7.81 (≈ 48.7 µM) | 1 | 
CCCCCCCOC(=O)C[C@@H](C)O [Embodiment 2-7, R-(−)-3-hydroxybutyrate heptyl ester] | 31.2 (≈ 154 µM) | >15 | 
CCOC(=O)[C@@H](C)O [Embodiment 3-2, R-(−)-lactate ethyl ester] | 35.5 (≈ 301 µM) | 5.25 | 
CCCCCCCCOC(=O)C[C@@H](C)O [Embodiment 2-8, R-(−)-3-hydroxybutyrate octyl ester] | 31.2 (≈ 144 µM) | >20 | 
CCCCCCCOC(=O)[C@@H](C)O [Embodiment 3-3, R-(−)-lactate heptyl ester] | 28.6 (≈ 152 µM) | 4.38 | 

Source: patent US12350249B2, “Efficient anti-bacterial hydroxy acid ester oligomer” (NANJING BIOSERICA ERA BIOLOGICAL TECHNOLOGY CO., LTD., priority 2020, dated 2025)
